Reference: EP1170007A1, “REMEDIES” (Takara Shuzo Co, Ltd., priority 1999, dated 2000)
“And” between values parts separate entries of the source, which are not always exact repeats. Equal entries are not always repeated.

Test system: interleukin-12
Experiment: Intraperitoneal interleukin-12 in mice inoculated with Ehrlich cancer cells (ELISA)
Format: in vivo, ddY mouse
Conditions: for Amount of intraperitoneal interleukin-12: 10 mg/kg intraperitoneally 1 day after inoculation, individual mice
Method: ddY mouse (female, 5 weeks old, weighing about 25 g) purchased from Japan SLC was used for experiments after preliminary breeding for 1 week. 1 x 10^6 Ehrlich cancer cells were intraperitoneally inoculated into the mouse. 10 mg/kg of cyclopentenone was intraperitoneally administered 1 day after the inoculation. The mouse was sacrificed by decapitating and exsanguinating 8 or 12 days after the inoculation with cancer cells. 2 ml, which is the same volume as that of ascites retained in the control mouse, of PBS (-) (Nissui Pharmaceutical) containing 1% bovine serum albumin (Sigma) was intraperitoneally injected into the mouse, which was recovered after extensive massage. For a control group, ascites was directly recovered. The recovered ascites and peritoneal lavage fluid were centrifuged at 2000 rpm for 5 minutes to recover supernatants. The supernatants were used to quantify the amounts of interleukin-12 using an ELISA kit for mouse interleukin-12 measurement (Endogen).

`O=C1C=CC(O)C1O` (stereo not drawn) [cyclopentenone, 4,5-dihydroxy-2-cyclopenten-1-one] was tested, and the “Amount of intraperitoneal interleukin-12” value (After 8 Days, control group ND) was 11.0 pg/mL and 100.0 pg/mL and 25.0 pg/mL, the “Amount of intraperitoneal interleukin-12” value (After 12 Days, control group all dead) was 43.0 pg/mL and 97.2 pg/mL and 66.4 pg/mL and the “activity of enhancing interleukin-12 production (result in words)” value (Ehrlich cancer cell inoculated mice) was “an activity of enhancing interleukin-12 production by cyclopentenone was observed for each mouse”.
